# From PMC5595947 (British Journal of Clinical Pharmacology, 2017)
# Like-named read-outs stand apart in the source and are kept apart here.
# Legend:
# CYP3A4 = CYP3A4 (Homo sapiens, UniProt P08684); assay: CYP3A4 inhibition in human liver microsomes; format: in vitro ADME; conditions: HLM; TV‐45065 0.05 to 50 μmol l^–1
# CYP2D6 [1] = biological target: T1, CYP2D6 (Homo sapiens, UniProt P10635); assay: CYP2D6 inhibition in human liver microsomes; format: in vitro ADME
# CYP3A4/5 = CYP3A4/5 induction in cultured human hepatocytes; format: in vitro ADME
# CYP1A2 [2] = biological target: T2, CYP1A2 (Homo sapiens, UniProt P05177); conditions: HLM; TV‐45065 0.05 to 50 μmol l^–1
# T2 sequence (P05177 1-516): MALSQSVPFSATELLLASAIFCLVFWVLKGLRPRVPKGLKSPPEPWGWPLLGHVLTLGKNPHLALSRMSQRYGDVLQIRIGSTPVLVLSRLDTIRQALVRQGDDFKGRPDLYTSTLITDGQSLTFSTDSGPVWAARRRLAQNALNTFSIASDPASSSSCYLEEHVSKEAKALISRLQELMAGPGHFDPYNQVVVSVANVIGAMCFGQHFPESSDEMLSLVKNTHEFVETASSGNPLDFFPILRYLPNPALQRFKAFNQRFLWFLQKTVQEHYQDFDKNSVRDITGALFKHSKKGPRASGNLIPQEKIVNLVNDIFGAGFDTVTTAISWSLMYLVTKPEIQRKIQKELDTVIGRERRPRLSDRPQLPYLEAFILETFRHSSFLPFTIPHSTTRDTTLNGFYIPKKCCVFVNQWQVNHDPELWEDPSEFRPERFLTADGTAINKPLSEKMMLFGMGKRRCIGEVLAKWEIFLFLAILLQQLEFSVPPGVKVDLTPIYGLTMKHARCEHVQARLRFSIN
# CYP2C8 [3] = format: in vitro ADME, human
# [4] = cited from earlier work; for elimination half‐life: metabolite
# CYP2C8 [5] = biological target: T3, CYP2C8 (Homo sapiens, UniProt P10632); conditions: HLM; TV‐45065 0.05 to 50 μmol l^–1; printed CYP2C8/9
# T3 sequence (P10632 1-490): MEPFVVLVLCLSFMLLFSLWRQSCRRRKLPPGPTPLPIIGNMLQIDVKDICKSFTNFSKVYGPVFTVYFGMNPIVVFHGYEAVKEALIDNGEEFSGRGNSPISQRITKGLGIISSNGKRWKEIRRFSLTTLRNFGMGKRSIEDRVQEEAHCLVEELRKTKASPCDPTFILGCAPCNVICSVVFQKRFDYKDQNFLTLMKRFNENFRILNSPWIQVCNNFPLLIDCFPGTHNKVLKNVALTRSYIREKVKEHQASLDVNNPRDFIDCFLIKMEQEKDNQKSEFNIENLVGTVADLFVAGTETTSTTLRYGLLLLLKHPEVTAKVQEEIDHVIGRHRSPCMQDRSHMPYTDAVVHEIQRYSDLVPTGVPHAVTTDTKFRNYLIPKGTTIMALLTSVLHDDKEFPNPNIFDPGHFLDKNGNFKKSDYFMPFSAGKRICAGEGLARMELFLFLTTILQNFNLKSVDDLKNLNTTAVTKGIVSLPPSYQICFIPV
# CYP2B6 = format: in vitro ADME, human
# CYP2C9 [6] = format: in vitro ADME, human
# CYP2C9 [7] = biological target: CYP2C9 (Homo sapiens, UniProt P11712); conditions: HLM; TV‐45065 0.05 to 50 μmol l^–1; printed CYP2C8/9
# CYP2C9 (Homo sapiens, UniProt P11712), sequence (P11712 whole entry): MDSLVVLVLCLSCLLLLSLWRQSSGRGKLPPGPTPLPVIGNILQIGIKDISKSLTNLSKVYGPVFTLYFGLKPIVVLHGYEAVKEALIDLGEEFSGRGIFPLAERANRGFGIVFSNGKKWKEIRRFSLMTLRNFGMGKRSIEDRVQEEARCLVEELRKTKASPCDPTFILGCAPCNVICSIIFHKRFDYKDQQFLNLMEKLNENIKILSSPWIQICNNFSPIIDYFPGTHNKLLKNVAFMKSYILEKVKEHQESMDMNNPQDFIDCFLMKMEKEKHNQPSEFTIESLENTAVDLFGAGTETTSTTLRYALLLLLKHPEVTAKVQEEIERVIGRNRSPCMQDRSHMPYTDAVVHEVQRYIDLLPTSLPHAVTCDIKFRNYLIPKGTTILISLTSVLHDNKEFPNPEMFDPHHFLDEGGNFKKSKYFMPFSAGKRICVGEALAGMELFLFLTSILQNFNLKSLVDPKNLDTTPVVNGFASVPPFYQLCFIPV
# CYP1A2 [8] = format: in vitro ADME, human
# CYP2C19 [9] = biological target: CYP2C19 (Homo sapiens, UniProt P33261); conditions: HLM; TV‐45065 0.05 to 50 μmol l^–1
# CYP2C19 (Homo sapiens, UniProt P33261), sequence (P33261 whole entry): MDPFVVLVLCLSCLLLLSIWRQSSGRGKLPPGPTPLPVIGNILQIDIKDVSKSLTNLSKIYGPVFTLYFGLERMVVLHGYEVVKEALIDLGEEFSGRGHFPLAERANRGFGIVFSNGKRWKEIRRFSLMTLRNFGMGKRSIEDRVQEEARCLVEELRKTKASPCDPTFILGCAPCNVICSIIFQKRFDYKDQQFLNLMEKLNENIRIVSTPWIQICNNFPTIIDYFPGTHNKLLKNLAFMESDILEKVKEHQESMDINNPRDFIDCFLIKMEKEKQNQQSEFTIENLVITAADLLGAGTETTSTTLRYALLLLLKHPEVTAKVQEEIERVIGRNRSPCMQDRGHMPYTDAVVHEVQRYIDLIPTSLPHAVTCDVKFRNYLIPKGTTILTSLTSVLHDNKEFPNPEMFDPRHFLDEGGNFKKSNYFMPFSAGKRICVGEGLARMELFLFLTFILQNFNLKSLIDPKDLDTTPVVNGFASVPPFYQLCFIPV
# CYP2C19 [10] = format: in vitro ADME, human
# CYP2D6 [11] = biological target: T1, CYP2D6
# CYP2D6 [12] = biological target: T1, CYP2D6; assay: clinical; conditions: plasma, 100 mg
# [13] = not given; remark: listed apart in the source
# clinical = conditions: human, plasma, oral, 45 mg
# CYP2D6 [14] = biological target: T1, CYP2D6; conditions: up to 100 μmol l^–1 pridopidine
# [15] = Safety and adverse events in the phase‐1 study in healthy subjects; format: in vivo, human
# [16] = up to 50 μmol l^–1 TV‐45065, three consecutive days
# [17] = caused by steady‐state pridopidine (discussion)
# [18] = metoprolol coadministered with pridopidine vs alone
# [19] = up to 100 μmol l^–1 pridopidine, 3 days, three hepatocyte cultures
# [20] = up to 100 μmol l^–1 pridopidine, cultured human hepatocytes
# T1 sequence (P10635 whole entry): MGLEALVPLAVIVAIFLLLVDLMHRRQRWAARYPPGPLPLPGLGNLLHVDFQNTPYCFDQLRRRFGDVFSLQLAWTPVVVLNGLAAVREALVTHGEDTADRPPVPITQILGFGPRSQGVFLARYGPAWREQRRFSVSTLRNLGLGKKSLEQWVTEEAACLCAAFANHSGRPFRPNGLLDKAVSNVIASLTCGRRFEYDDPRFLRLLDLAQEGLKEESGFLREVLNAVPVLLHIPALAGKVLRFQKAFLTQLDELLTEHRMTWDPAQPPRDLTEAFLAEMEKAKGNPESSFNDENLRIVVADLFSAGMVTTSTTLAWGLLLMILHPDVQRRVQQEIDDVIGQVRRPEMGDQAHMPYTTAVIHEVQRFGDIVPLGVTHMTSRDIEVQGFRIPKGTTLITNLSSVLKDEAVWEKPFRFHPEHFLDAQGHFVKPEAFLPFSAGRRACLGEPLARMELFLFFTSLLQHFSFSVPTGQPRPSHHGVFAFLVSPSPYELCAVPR
# CYP3A4, sequence (P08684 2-503): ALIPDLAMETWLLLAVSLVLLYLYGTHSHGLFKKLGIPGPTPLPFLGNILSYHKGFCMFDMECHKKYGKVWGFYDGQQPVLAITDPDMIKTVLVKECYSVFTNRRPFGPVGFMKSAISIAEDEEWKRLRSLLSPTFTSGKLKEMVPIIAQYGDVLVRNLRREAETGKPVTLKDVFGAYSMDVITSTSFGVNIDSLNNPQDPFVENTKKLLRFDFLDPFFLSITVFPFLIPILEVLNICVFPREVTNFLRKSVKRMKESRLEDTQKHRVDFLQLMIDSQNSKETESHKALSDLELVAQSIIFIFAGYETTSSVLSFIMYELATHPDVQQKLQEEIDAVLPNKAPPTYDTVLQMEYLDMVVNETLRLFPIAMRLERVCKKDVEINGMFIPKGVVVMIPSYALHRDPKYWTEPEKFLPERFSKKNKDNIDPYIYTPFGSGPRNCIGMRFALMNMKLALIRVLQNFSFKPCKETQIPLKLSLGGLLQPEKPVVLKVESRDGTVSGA
smiles,measurement,setting,value
CS(=O)(=O)c1cccc(C2CCNCC2)c1 [TV‐45065],direct inhibition of CYP3A4,CYP3A4,did not show any direct inhibition
same,direct inhibition of CYP2D6,"CYP2D6 [1]; HLM, TV‐45065 0.05 to 50 μmol l^–1",did not show any direct inhibition
same,IC50,"CYP2D6 [1]; read-out: IC50, time‐/metabolism‐dependent inhibition of CYP2D6, HLM, TV‐45065 0.05 to 50 μmol l^–1",> 50 µM
same,"CYP3A4/5 induction, effectiveness relative to positive control CYP inducer",CYP3A4/5; [16],≤ 20%
same,increase in CYP3A4/5 activity or mRNA expression (on average),CYP3A4/5; [16],≤ 2.0 fold
same,direct inhibition of CYP1A2,CYP1A2 [2],did not show any direct inhibition
same,"CYP2C8 induction, effectiveness relative to positive control CYP inducer",CYP2C8 [3]; [16],≤ 20%
same,increase in CYP2C8 activity or mRNA expression (on average),CYP2C8 [3]; [16],≤ 2.0 fold
same,elimination half‐life,"[4]; repeated administration, extensive metabolizers",17 h
same,elimination half‐life,"[4]; repeated administration, poor metabolizers",19 h
same,elimination half‐life,"[4]; single dose administration, extensive metabolizers",approximately 8 h
same,elimination half‐life,"[4]; single dose administration, poor metabolizers",~32 h
same,direct inhibition of CYP2C8,CYP2C8 [5],did not show any direct inhibition
same,"CYP2B6 induction, effectiveness relative to positive control CYP inducer",CYP2B6; [16],≤ 20%
same,increase in CYP2B6 activity or mRNA expression (on average),CYP2B6; [16],≤ 2.0 fold
same,"CYP2C9 induction, effectiveness relative to positive control CYP inducer",CYP2C9 [6]; [16],≤ 20%
same,increase in CYP2C9 activity or mRNA expression (on average),CYP2C9 [6]; [16],≤ 2.0 fold
same,direct inhibition of CYP2C9,CYP2C9 [7],did not show any direct inhibition
same,"Cmax and AUC, fed vs fasted states","metabolite after single 90‐mg pridopidine dose, data not shown",similar
same,"CYP1A2 induction, effectiveness relative to positive control CYP inducer",CYP1A2 [8]; [16],≤ 20%
same,increase in CYP1A2 activity or mRNA expression (on average),CYP1A2 [8]; [16],≤ 2.0 fold
same,direct inhibition of CYP2C19,CYP2C19 [9],did not show any direct inhibition
same,"CYP2C19 induction, effectiveness relative to positive control CYP inducer",CYP2C19 [10]; [16],≤ 20%
same,increase in CYP2C19 activity or mRNA expression (on average),CYP2C19 [10]; [16],≤ 2.0 fold
COCCc1ccc(OCC(O)CNC(C)C)cc1 (stereo not shown) [metoprolol],increase in metoprolol AUC,CYP2D6 [11]; [17],up to 5 fold
same,increase in metoprolol peak concentrations,CYP2D6 [11]; [17],up to 3 fold
same,"t½, mean (SD)",CYP2D6 [11]; metoprolol 100 mg single oral dose alone,3.69 (0.83) h
same,increase in mean AUC0–∞,CYP2D6 [11]; [18],5.1 fold
same,increase in mean Cmax,CYP2D6 [11]; [18],3.5 fold
same,range of tmax,CYP2D6 [11]; metoprolol during coadministration with pridopidine,1 to 4 h
same,Tmax,CYP2D6 [12]; oral,0.75 to 2 h
same,AUC(0-inf),CYP2D6 [12]; po,0.46 µg·h/mL
same,AUC(0-t),CYP2D6 [12]; po,0.447 µg·h/mL
same,Cmax,CYP2D6 [12]; po,0.084 µg/mL
same,Tmax,CYP2D6 [12]; po,~2 h
"CCCN1CCC(c2cccc(S(C)(=O)=O)c2)CC1 [pridopidine, 4‐[3‐(methylsulfonyl)phenyl]‐1‐propylpidperidine]","Cmax,ss, mean (SD)","[13]; 45 mg BID for 7 days, PM (6–18 h), metoprolol given with PM dose",727.30 (152.38) ng ml^–1
same,"Cav,ss, mean (SD)","[13]; 45 mg BID, AM (0–6 h)",407.29 (90.82)
same,"AUCss, mean (SD)","[13]; 45 mg BID, AM (0–6 h), AUC0–6",2443.75 (544.95) ng h ml^–1
same,"Cav,ss, mean (SD)","[13]; 45 mg BID, PM (6–18 h)",447.33 (92.19)
same,"AUCss, mean (SD)","[13]; 45 mg BID, PM (6–18 h), AUC0–18 following the afternoon dose",8052.03 (1659.34) ng h ml^–1
same,time of BID dosing after which steady state was reached,"[13]; 45 mg BID, morning trough plasma levels",7 days
same,effect of heat inactivation of FMO on CYP2D6 MDI extent,"CYP2D6 [1]; HLM heat treated (50°C, 2 min)",did not affect
same,IC50,"CYP2D6 [1]; IC50, direct inhibition (no preincubation), HLM, preincubation time row 2 h",39 µM
same,IC50,"CYP2D6 [1]; IC50, direct inhibition (no preincubation), HLM, preincubation time row 3 h",39 µM
same,IC50,"CYP2D6 [1]; IC50, direct inhibition (no preincubation), HLM, preincubation time row 4 h",39 µM
same,reversibility of metabolism‐dependent inhibition of CYP2D6,CYP2D6 [1]; microsomal re‐isolation or addition of potassium ferricyanide,not reversed
same,change in CYP3A4 mRNA levels,CYP3A4/5; [19],< 2 fold
same,Cmax,clinical,0.525 µg/mL
same,decrease in CYP2D6 activity compared to vehicle control,"CYP2D6 [14]; hepatocyte cultures, vehicle 0.1% DMSO",up to 64.2%
same,change in CYP2D6 mRNA levels,"CYP2D6 [14]; 3 days, three hepatocyte cultures",< 2 fold
same,change in CYP2C8 mRNA levels,CYP2C8 [3]; [19],< 2 fold
same,change in CYP2C8 activity,CYP2C8 [3]; [20],< 2 fold
same,time (tmax) to reach Cmax,[4]; oral administration,roughly 2 h
same,mean peak concentration in plasma,[4]; single 45‐mg dose,303 ng ml^–1
same,pridopidine exposure,"[4]; single dose, extensive metabolizers",3782 ng h ml^–1
same,pridopidine exposure,"[4]; single dose, poor metabolizers",11 192 ng h ml^–1
same,mean peak concentration in plasma,[4]; steady state following 14 days of 45 mg BID dosing,620 ng ml^–1
same,pridopidine exposure,"[4]; steady state, extensive metabolizers",9338 ng h ml^–1
same,pridopidine exposure,"[4]; steady state, poor metabolizers",12 080 ng ml^–1
same,change in CYP2B6 mRNA levels,CYP2B6; [19],< 2 fold
same,change in CYP2B6 activity,CYP2B6; [20],< 2 fold
same,change in CYP2C9 mRNA levels,CYP2C9 [6]; [19],< 2 fold
same,change in CYP2C9 activity,CYP2C9 [6]; [20],< 2 fold
same,"amnestic aphasia, subjects","[15]; following BID administration, two subjects",9.1%
same,increase in pulse rate,[15]; pridopidine 45 mg BID,up to 12 beats min^–1
same,"difference in median tmax, fed state in comparison to fasted state",single 90‐mg dose,1.5 h
same,change in CYP1A2 mRNA levels,CYP1A2 [8]; [19],< 2 fold
same,change in CYP1A2 activity,CYP1A2 [8]; [20],< 2 fold
same,change in CYP2C19 mRNA levels,CYP2C19 [10]; [19],< 2 fold
same,change in CYP2C19 activity,CYP2C19 [10]; [20],< 2 fold
